Where a SMILES comes first, the peptide text is derived from it. Bridges are numbered along the chain shown (N, C = ends). [ ]: non-standard residue; d: D form. The star is where a group is joined. Ileψ(thiazoline)Cys = CC[C@H](C)[C@H](N)C1=N[C@H](C(=O)*)CS1; dOrn = NCCC[C@@H](N)C(=O)O
How the values were obtained:
[1] = tested on: high-lipid (HL) mutants; experiment: Chemical sensitivity analysis, high-lipid mutants vs parent strain; type: cell-based, Rhodobacter sphaeroides; settings: all HL mutants; 96-well plates, 30° C., 48 hours, OD 595 nm, normalized to DMSO control and parent strain; conc. per Table 4B
[2] = tested on: HLM04 and HLM07; experiment: Chemical sensitivity analysis, Cluster B strains; type: cell-based, Rhodobacter sphaeroides; settings: 48 hours, OD 595 nm, conc. per Table 4B
Description: (§1) Selected compounds (Tables 4A and 4B) were tested for their effects on growth of the parent strain to determine the highest doses that cause <30% growth reduction. Parent and high-lipid mutant strains were grown in the presence of the chemicals, or DMSO as a control, in 96-well plates at 30° C. with shaking for 48 hours. Final ODs were read at 595 nm on an Infinite® F500 microplate reader (Tecan). For each strain, final ODs for each drug treatment were first divided by the OD of the DMSO control for that strain to determine relative cell growth, and then the growth value for each treated culture was normalized by the parent strain growth under the same condition.

[3] = tested on: HLM01, HLM02 and HLM05; experiment: Chemical sensitivity analysis, Cluster A strains; type: cell-based, Rhodobacter sphaeroides; settings: 48 hours, OD 595 nm, conc. per Table 4B
[4] = tested on: HLM03; settings: 48 hours, OD 595 nm, conc. per Table 4B
Description: as §1

Molecule: CCCCCCCCCCCCOS(=O)(=O)[O-].[Na+] [SDS, sodium dodecyl sulfate]
- growth of the high-lipid mutants compared to the parent strain (relative fitness) [1]: many or all of the high-lipid mutants showed increased sensitivity

Molecule: CC[C@H](C)[C@H](N)C1=N[C@H](C(=O)N[C@@H](CC(C)C)C(=O)N[C@H](CCC(=O)O)C(=O)N[C@H](C(=O)N[C@H]2CCCCNC(=O)[C@H](CC(N)=O)NC(=O)[C@@H](CC(=O)O)NC(=O)[C@H](Cc3cnc[nH]3)NC(=O)[C@@H](Cc3ccccc3)NC(=O)[C@H]([C@@H](C)CC)NC(=O)[C@@H](CCCN)NC2=O)[C@@H](C)CC)CS1 [bacitracin] ({Ileψ(thiazoline)Cys}-L[dE]IK[dOrn]I[dF]H[dD]N; lactam 4-C)
- sensitivity compared to the parent strain (relative growth, cluster ** in FIG. 3) [2]: increased sensitivity

Molecule: CO/N=C(\C(=O)N[C@@H]1C(=O)N2C(C(=O)O)=C(CSc3nc(=O)c(=O)[nH]n3C)CS[C@H]12)c1csc(N)n1 [ceftriaxone]
- sensitivity compared to the parent strain (relative growth, cluster ** in FIG. 3) [2]: increased sensitivity

Molecule: CC[C@H]1OC(=O)[C@H](C)[C@@H](O[C@H]2C[C@@](C)(OC)[C@@H](O)[C@H](C)O2)[C@H](C)[C@@H](O[C@@H]2O[C@H](C)C[C@H](N(C)C)[C@H]2O)[C@](C)(OC)C[C@@H](C)C(=O)[C@H](C)[C@@H](O)[C@]1(C)O [clarithromycin]
- sensitivity compared to the parent strain (relative growth, cluster * in FIG. 3) [3]: sensitive

Molecule: CC[C@H]1OC(=O)[C@H](C)[C@@H](O[C@H]2C[C@@](C)(OC)[C@@H](O)[C@H](C)O2)[C@H](C)[C@@H](O[C@@H]2O[C@H](C)C[C@H](N(C)C)[C@H]2O)[C@](C)(O)C[C@@H](C)C(=O)[C@H](C)[C@@H](O)[C@]1(C)O [erythromycin]
- sensitivity compared to the parent strain (relative growth, cluster * in FIG. 3) [3]: sensitive

Molecule: OO [hydrogen peroxide]
- sensitivity compared to the parent strain (relative growth) [4]: increased sensitivity

Molecule: CO[C@H]1/C=C/O[C@@]2(C)Oc3c(C)c(O)c4c(O)c(c5c(nc6cc(C)ccn65)c4c3C2=O)NC(=O)/C(C)=C\C=C\[C@H](C)[C@H](O)[C@@H](C)[C@@H](O)[C@@H](C)[C@H](OC(C)=O)[C@@H]1C [rifaximin]
- sensitivity compared to the parent strain (relative growth, cluster * in FIG. 3) [3]: sensitive

Molecule: neomycin
- growth of the high-lipid mutants compared to the parent strain (relative fitness) [1]: no growth difference
